Assay results published in US11925653B2, “Combination therapy effective against microorganisms, including drug resistant microorganisms” (Fleurir ABX LLC, priority 2021, dated 2024).
Marks after values point to notes of the source that are not given here.

Legend:
Enterococcus faecalis [1] = test: MIC and synergy checkerboard assay, broth microdilution; assay type: cell-based
P. mirabilis = test: MIC and synergy checkerboard assay, broth microdilution (uUTI species); assay type: cell-based, Proteus mirabilis
Protocol: (§1) Minimum inhibitory concentration (MIC) assays were performed in a manner as described for the CLSI Agar dilution or broth microdilution assay guideline (see, Clinical Laboratory Standards Institute, 2009, Methods for Dilution Antimicrobial Susceptibility Tests for Bacteria That Grow Aerobically; Approved Standard, Eighth Edition, M07-A8, Vol. 29, No. 2). For example, known antibiotics or the compositions described herein were dissolved, serially diluted, and then added to tempered molten Mueller-Hinton Agar before pouring of plates; or were dissolved, and then serially diluted in 100 μL cation-adjusted Mueller-Hinton broth across the assay plate in the classical 2-fold geometric format. D-glucose-6-phosphate was included as a medium supplement in both agar, and broth at a concentration of 50 mg/L. Antibiotic concentrations for agar assay were at the final concentration. Antibiotic concentrations for broth microdilution in each well at this point were double what the final assay concentration would be. Bacterial inocula were prepared by swabbing several colonies from a fresh agar plate, and re-suspending the bacteria to a density that was the 0.5 McFarland turbidity standard, considered close or equivalent to 1×10^8 CFU/mL. For agar dilution, a steers replicator was utilized to deliver 1×10^4 CFU/spot. For broth microdilution, the bacterial inocula were diluted in the cation-adjusted Mueller-Hinton broth to 1×10^6 CFU/mL, and 100 μL was overlayered onto the wells containing a diluted antibiotic or a composition described. Following incubation as per the guideline, results were recorded as growth or no growth, and the lowest concentration of the antibiotic or the composition described where no growth was observed was declared the MIC.
To assay for synergy of antibacterial combinations, a recognized synergy checkerboard assay, adapted from the CLSI guideline microdilution assay, was utilized (see Eliopoulos, G. M., and Moellering, R. C, Jr., 1996. Antimicrobial Combinations, pg. 330-396. In: Lorian, V. (Ed.), Antibiotics in Laboratory Medicine, 4th Ed., Williams & Wilkins; Baltimore, MD). In the case of the agar dilution method, each antibiotic alone, or in combination was added to agar prior to plate pouring. For broth microdilution, the first compound (or antibiotic or agent) was diluted in cation-adjusted Mueller-Hinton broth across the plate along the horizontal axis with each well in a row containing 50 μL of an identical concentration of compound (or antibiotic). Along the vertical axis a dilution series of the second compound (or antibiotic) was dispensed. At this point the drug concentrations are four-fold of the final desired working concentration. […] Following incubation, wells with no growth are noted. […]

S. saprophyticus = test: as above; assay type: cell-based, Staphylococcus saprophyticus
Protocol: as §1, with “MIC. […]” for “MIC.”

N. gonorrhoeae = test: MIC and synergy checkerboard assay, agar dilution on GC agar; assay type: cell-based
Protocol: as §1
To assay for synergy of antibacterial combinations, a recognized synergy checkerboard assay, adapted from the CLSI guideline microdilution assay, was utilized (see Eliopoulos, G. M., and Moellering, R. C, Jr., 1996. Antimicrobial Combinations, pg. 330-396. In: Lorian, V. (Ed.), Antibiotics in Laboratory Medicine, 4th Ed., Williams & Wilkins; Baltimore, MD). In the case of the agar dilution method, each antibiotic alone, or in combination was added to agar prior to plate pouring. For broth microdilution, the first compound (or antibiotic or agent) was diluted in cation-adjusted Mueller-Hinton broth across the plate along the horizontal axis with each well in a row containing 50 μL of an identical concentration of compound (or antibiotic). Along the vertical axis a dilution series of the second compound (or antibiotic) was dispensed. At this point the drug concentrations are four-fold of the final desired working concentration. […] Following incubation, wells with no growth are noted. […] FIC=(MIC-A combination/MIC-A alone)+(MIC-B combination/MIC-B alone).
In the above, FIC: Synergy=FIC<0.5; Additive=FIC>0.5-1; Indifferent=FIC>1-2; Antagonism=FIC>2-4.
Synergy is also identified in TABLE 9 (utilizing the agar checkerboard assay) against N. gonorrhoeae. In these analyses, the agar dilution was performed utilizing GC agar supplemented with Isovitalex, and 50 mg/L of D-glucose-6-phosphate. […] MIC comparator data was performed using the following known antibiotics: Ceftriaxone, Azithromycin, Cefixime, Ciprofloxacin, Tetracycline, Pristinamycin, Solithromycin, and Delafloxacin. Pristinamycin was purified from capsules obtained in France; Solithromycin, and Delafloxacin were synthesized internally for comparison.

Enterococcus faecalis [2] = test: minimum bactericidal concentration (MBC) assay; assay type: cell-based
Protocol: (§2) Synergy was also assayed by both agar, and broth microdilution methods. Additional information gathered about the synergistic effect of the described composition as a combination therapy was evaluated by determining bacterial killing effect. This was performed as described above for the checkerboard synergy assay with the exception that the bacterial count in an assay well was determined by plating at the beginning of the experiment, and identifying at the end of incubation for an assay well where growth was inhibited. This has been adapted from both the broth microdilution, and the bactericidal assays (Clinical Laboratory Standards Institute (1999) Methods for Determining Bactericidal Activity of Antimicrobial Agents; Approved Guideline M26-A, Vol. 19, No. 18). […] The value derived was the reduction in bacterial numbers (viability) for the compounds when alone versus the described composition comprising the combined antibiotics.
(§3) As there is no published definition for bactericidal synergy, MIC metric was utilized.

Escherichia coli = test: minimum bactericidal concentration (MBC) assay; assay type: cell-based
Protocol: as §2, §3

Pseudomonas aeruginosa = test: minimum bactericidal concentration (MBC) assay; assay type: cell-based
Protocol: as §2, §3

Staphylococcus aureus = test: minimum bactericidal concentration (MBC) assay; assay type: cell-based
Protocol: as §2, §3

bacteria = test: spontaneous mutational frequency (SMF; resistance); assay type: cell-based; conditions: resistant colonies observed divided by total inoculum; plates with 4-fold MIC of the combination or 2-fold MIC of each antibiotic alone
Protocol: MIC was further evaluated to confirm resistance, and the spontaneous mutational frequency was calculated based on the following equation: […]
The spontaneous mutational frequency (SMF; resistance) was calculated as the number of resistant colonies observed divided by the total inoculum.

E. faecalis = conditions: cited from earlier work
E. coli = conditions: cited from earlier work
susceptible bacteria = conditions: susceptible strains of Escherichia coli and Enterococcus faecalis; cited from earlier work
[3] = Enterococcus faecalis (ATCC 29212)
[4] = Enterococcus faecalis (MGH-01) (VanA)

With `C[C@@H]1O[C@@H]1P(=O)(O)O` [Fosfomycin, cis-1,2-epoxypropyl phosphonic acid] the “MIC (Combo as F/DP/SM; second compound as DP/SM)” value (Enterococcus faecalis [1]; E. faecalis 1082155) was 32 µg/mL, the “MIC (Combo as F/DP/SM; second compound as DP/SM)” value (Enterococcus faecalis [1]; E. faecalis 1120278) was 64 µg/mL and the “MIC (Combo as F/DP/SM; second compound as DP/SM)” value (Enterococcus faecalis [1]; E. faecalis 1129099) was 4 µg/mL. The “MIC (Combo as F/DP/SM; second compound as DP/SM)” value (Enterococcus faecalis [1]; E. faecalis 1175598) was 32 µg/mL, the “MIC (Combo as F/DP/SM; second compound as DP/SM)” value (Enterococcus faecalis [1]; E. faecalis 10864321) was 32 µg/mL and the “MIC (Combo as F/DP/SM; second compound as DP/SM)” value (Enterococcus faecalis [1]; [3]) was 64 µg/mL. For the same compound, the “MIC (Combo as F/DP/SM; second compound as DP/SM)” value (Enterococcus faecalis [1]; [4]) was 256* μg/ml, the “MIC (Combo as F/DP/SM; second compound as DP/SM)” value (Enterococcus faecalis [1]; Enterococcus faecalis (MGH-06)) was 128* μg/ml and the “MIC (Combo as F/DP/SM; second compound as DP/SM)” value (P. mirabilis; P. mirabilis 1071120) was 1 µg/mL. The “MIC (Combo as F/DP/SM; second compound as DP/SM)” value (P. mirabilis; P. mirabilis 1124256) was 64 µg/mL, the “MIC (Combo as F/DP/SM; second compound as DP/SM)” value (P. mirabilis; P. mirabilis 1128681) was 4 µg/mL and the “MIC (Combo as F/DP/SM; second compound as DP/SM)” value (P. mirabilis; P. mirabilis 1184042) was 4 µg/mL. The “MIC (Combo as F/DP/SM; second compound as DP/SM)” value (S. saprophyticus; S. saprophyticus 1119421) was 32 µg/mL, the “MIC (Combo as F/DP/SM; second compound as DP/SM)” value (S. saprophyticus; S. saprophyticus 1124324) was 32 µg/mL and the “MIC (Combo as F/DP/SM; second compound as DP/SM)” value (S. saprophyticus; S. saprophyticus 1136894) was 64 µg/mL. For the same compound, the “MIC (Combo as F/DP/SM; second compound as DP/SM)” value (N. gonorrhoeae; N. gonorrhoeae 127781) was 16 µg/mL, the “MIC (Combo as F/DP/SM; second compound as DP/SM)” value (N. gonorrhoeae; N. gonorrhoeae 127782) was 16 µg/mL and the “MIC (Combo as F/DP/SM; second compound as DP/SM)” value (N. gonorrhoeae; N. gonorrhoeae 127783) was 16 µg/mL. For the same compound, the “MIC (Combo as F/DP/SM; second compound as DP/SM)” value (N. gonorrhoeae; N. gonorrhoeae 127786) was 16 µg/mL, the “MIC (Combo as F/DP/SM; second compound as DP/SM)” value (N. gonorrhoeae; N. gonorrhoeae 1117522) was 16 µg/mL and the “MIC (Combo as F/DP/SM; second compound as DP/SM)” value (N. gonorrhoeae; N. gonorrhoeae 1117523) was 16 µg/mL. For the same compound, the “MIC (Combo as F/DP/SM; second compound as DP/SM)” value (N. gonorrhoeae; N. gonorrhoeae 1117524) was 8 µg/mL, the “MIC (Combo as F/DP/SM; second compound as DP/SM)” value (N. gonorrhoeae; N. gonorrhoeae 1117525) was 8 µg/mL and the “MIC (Combo as F/DP/SM; second compound as DP/SM)” value (N. gonorrhoeae; N. gonorrhoeae 1117527) was 8 µg/mL. For the same compound, the “MBC, lowest concentration providing a >3-log reduction within 24 hours (Combo as F/DP/SM; second compound as DP/SM)” value (Enterococcus faecalis [2]; [3]) was no less than 512 μg/ml, the “MBC, lowest concentration providing a >3-log reduction within 24 hours (Combo as F/DP/SM; second compound as DP/SM)” value (Enterococcus faecalis [2]; [4]) was no less than 512 μg/ml and the “MBC, lowest concentration providing a >3-log reduction within 24 hours (Combo as F/DP/SM; second compound as DP/SM)” value (Enterococcus faecalis [2]; Enterococcus faecalis (MGH-06)) was 512 μg/ml. For the same compound, the “MBC, lowest concentration providing a >3-log reduction within 24 hours (Combo as F/DP/SM; second compound as DP/SM)” value (Escherichia coli; Escherichia coli (854535)) was 256 μg/ml, the “MBC, lowest concentration providing a >3-log reduction within 24 hours (Combo as F/DP/SM; second compound as DP/SM)” value (Escherichia coli; Escherichia coli (928017)) was 256 μg/ml and the “MBC, lowest concentration providing a >3-log reduction within 24 hours (Combo as F/DP/SM; second compound as DP/SM)” value (Escherichia coli; Escherichia coli (ATCC 25922)) was 32 μg/ml. The “MBC, lowest concentration providing a >3-log reduction within 24 hours (Combo as F/DP/SM; second compound as DP/SM)” value (Pseudomonas aeruginosa; Pseudomonas aeruginosa (924190)) was greater than 512 μg/ml, the “MBC, lowest concentration providing a >3-log reduction within 24 hours (Combo as F/DP/SM; second compound as DP/SM)” value (Pseudomonas aeruginosa; Pseudomonas aeruginosa (985543)) was 512 μg/ml and the “MBC, lowest concentration providing a >3-log reduction within 24 hours (Combo as F/DP/SM; second compound as DP/SM)” value (Staphylococcus aureus; Staphylococcus aureus (918019 - MRSA)) was 128 μg/ml. The “MBC, lowest concentration providing a >3-log reduction within 24 hours (Combo as F/DP/SM; second compound as DP/SM)” value (Staphylococcus aureus; Staphylococcus aureus (959797 - MRSA)) was 64 μg/ml, the “MBC, lowest concentration providing a >3-log reduction within 24 hours (Combo as F/DP/SM; second compound as DP/SM)” value (Staphylococcus aureus; Staphylococcus aureus (ATCC 29213 - MSSA)) was 128 μg/ml and the “MBC, lowest concentration providing a >3-log reduction within 24 hours (Combo as F/DP/SM; second compound as DP/SM)” value (Staphylococcus aureus; Staphylococcus aureus (ATCC 33591) (MRSA)) was 256 μg/ml. For the same compound, the “MBC, lowest concentration providing a >3-log reduction within 24 hours (Combo as F/DP/SM; second compound as DP/SM)” value (Staphylococcus aureus; Staphylococcus aureus (MGH-04)) was 256 μg/ml, the “MBC, lowest concentration providing a >3-log reduction within 24 hours (Combo as F/DP/SM; second compound as DP/SM)” value (Staphylococcus aureus; Staphylococcus aureus (USA-300 CDC- MRSA)) was 256 μg/ml and the “frequency of spontaneous mutants resistant (spontaneous mutational frequency, SMF)” value (bacteria) was 6.33×10^−6. For the same compound, the MIC (E. faecalis) was 32 to 128 µg/mL, the MIC (E. coli) was 0.5 to 2 µg/mL and the MIC (susceptible bacteria) was no more than 64 µg/mL.
